Holding throughout (type): physicochemical
Data set [1] can be described thus: Solubility of salts of 4-9 prepared in situ (pH and concentration by HPLC). As to conditions: for pH: pH of the liquid residue of the aqueous suspension; for Solubility: free base plus 1.05 mole equivalents of acid, suspended in 100 μL of water, rotated overnight, centrifuged. The text has this: Two forms of the mesylate salt were made: Salt 4-9A above and Salt 4-9B below.

A short description of data set [2]: Measurement of salt solubility: salts of 1-11 formed in situ and suspended in water, HPLC (UV-Vis). The settings on record: for Solubility: free base plus 1.05-1.1 molar equivalence of acid, suspended in water for several days, method overestimates the solubility; for pH: pH in equilibrium with the solid phase of the salt suspended in water, most likely lower than pH of the salt in water. Here is the method: The solid free base was treated with a concentrated solution of the appropriate acid (1.05-1.1 molar equivalence) and suspended in water for several days. The pH and concentration of the compound in equilibrium with the solid phase was measured by HPLC (UV-Vis detection). This method overestimates the solubility of the salt due to the 5-10% excess of the acid that is added in the preparation of the salts. For the same reason, the pH's that are obtained are most likely lower than the pH of the salt in water.

Data set [3] can be described thus: Solubility of isolated crystalline salts of 1-11 in water and organic solvents. As to conditions: for solubility at 7 days: thermodynamic from solid, RT for 7 days. Here is the method:
The amorphous mesylate salt was recrystallized from 50:50 Ethanol:THF to give a crystalline powder (Salt 1-11A). The X-ray powder diffraction pattern (XRPD) of the recrystallized mesylate salt 1-11A (FIG. 2) is indicative of crystalline material with multiple diffraction peaks between 5° and 30° 2-theta.
A second batch of crystalline mesylate salt (Salt 1-11B) was obtained by the following procdeure. To a stirred suspension of 1-11 (4.026 g, 9.22 mmol) in MeOH was slowly added at room temperature (RT) one equivalent of a 0.3M solution of methanesulfonic acid (30.73 mL). After all the solid had dissolved, the mixture was filtered into a flask and concentrated under reduced pressure while cooled to about 10° C. The resulting solid was suspended with 200 mL of ethylacetate, filtered, and dried to afford the mesylate salt. […] This crystalline form is different by XRPD than the one recrystallized from the amorphous salt in EtOH/THF (Salt 1-11A).
HCl salt 1-11D is also crystalline as witnessed by the X-ray powder diffraction pattern of the material, having multiple diffraction peaks between 5° and 30° 2-theta. […] (rate of 10° C./min). The compound is birefringent under plane polarized light. It is needle-shaped particles of approximately 5-25 micron. The solubility of salt 1-11D was measured in water and various organic solvents. Table VI below summarizes the solubility of the 1-11D suspended in various solvents for 7 days at room temperature.

A short description of data set [4]: Solubility of free base 1-11 at room temperature in 0.05M aqueous buffers, water and organic solvents (HPLC). Here is the method:
The solubility of 1-11 at room temperature was determined in 0.05M aqueous buffers, water and several organic solvents.

This is an account of results in patent US6960590B2, “Orally active salts with tyrosine kinase activity” (Merck & Co. Inc., priority 2000, dated 2005).

Where a name gives a salt, the structure may show the parent alone.

Usually Solubility stands for how much of the substance goes into solution per volume. A word on the solubility: it is how much of the substance goes into solution per volume.

For `COCCN(C)CCOc1ccc2[nH]c(-c3cc4ccccc4[nH]c3=O)cc2c1` [Sulfate salt of 4-9, 3-(5-{2-[(2-methoxyethyl)(methyl)amino]ethoxy}-1H-indol-2-yl)-2(1H)-quinolinone], in data set [1], the pH came out at 1.40.

With `CS(=O)(=O)N1CCN(Cc2ccc3[nH]c(-c4cc5ccccc5[nH]c4=O)cc3c2)CC1` [HCl salt of 1-11, 3-[5-(4-Methanesulfonyl-piperazin-1-ylmethyl)-1H-indol-2-yl]-1H-quinolin-2-one], in data set [2], the Solubility was 430 µg/mL and the pH was found to be 2.3.

With `COCCN(C)CCOc1ccc2[nH]c(-c3cc4ccccc4[nH]c3=O)cc2c1` [Citrate salt of 4-9, 3-(5-{2-[(2-methoxyethyl)(methyl)amino]ethoxy}-1H-indol-2-yl)-2(1H)-quinolinone], in data set [1], the Solubility is 19800 µg/mL and the pH is 3.33.

In the case of `CS(=O)(=O)N1CCN(Cc2ccc3[nH]c(-c4cc5ccccc5[nH]c4=O)cc3c2)CC1` [Salt 1-11B, 3-[5-(4-Methanesulfonyl-piperazin-1-ylmethyl)-1H-indol-2-yl]-1H-quinolin-2-one], the Solubility in data set [3] (acetonitrile, organic solvent or mixture) came to 30 µg/mL.

`CS(=O)(=O)N1CCN(Cc2ccc3[nH]c(-c4cc5ccccc5[nH]c4=O)cc3c2)CC1` [Mesylate salt of 1-11, 3-[5-(4-Methanesulfonyl-piperazin-1-ylmethyl)-1H-indol-2-yl]-1H-quinolin-2-one]: in data set [2], the Solubility is 580 µg/mL and the pH was determined as 2.3.

Take `CS(=O)(=O)N1CCN(Cc2ccc3[nH]c(-c4cc5ccccc5[nH]c4=O)cc3c2)CC1` [Sulfate salt of 1-11, 3-[5-(4-Methanesulfonyl-piperazin-1-ylmethyl)-1H-indol-2-yl]-1H-quinolin-2-one]: in data set [2], the Solubility was 130 µg/mL and the pH was 1.5.

Take `CS(=O)(=O)N1CCN(Cc2ccc3[nH]c(-c4cc5ccccc5[nH]c4=O)cc3c2)CC1` [Maleate salt of 1-11, 3-[5-(4-Methanesulfonyl-piperazin-1-ylmethyl)-1H-indol-2-yl]-1H-quinolin-2-one]: in data set [2], the Solubility was 160 µg/mL and the pH is recorded as 2.5.

Consider `COCCN(C)CCOc1ccc2[nH]c(-c3cc4ccccc4[nH]c3=O)cc2c1` [Mesylate 4-9B, 3-(5-{2-[(2-methoxyethyl)(methyl)amino]ethoxy}-1H-indol-2-yl)-2(1H)-quinolinone], for which the Solubility in data set [1] was determined as 22000 µg/mL.

With `CS(=O)(=O)N1CCN(Cc2ccc3[nH]c(-c4cc5ccccc5[nH]c4=O)cc3c2)CC1` [Salt 1-11, 3-[5-(4-Methanesulfonyl-piperazin-1-ylmethyl)-1H-indol-2-yl]-1H-quinolin-2-one], the Solubility in data set [4] (0.05M Carbonate, pH final 10.09, room temperature) turned out to be 79 µg/mL; in data set [4] (0.05M Citrate, pH final 4.15, room temperature) it was 73 µg/mL; in data set [4] (0.05M Citrate, pH final 5.07, room temperature) it was 70 µg/mL; in data set [4] (0.05M Phosphate, pH final 7.93, room temperature) it was 74 µg/mL; in data set [4] (0.05M Phosphate, pH final 8.86, room temperature), 73 µg/mL.

For `CS(=O)(=O)N1CCN(Cc2ccc3[nH]c(-c4cc5ccccc5[nH]c4=O)cc3c2)CC1` [Acetate salt of 1-11, 3-[5-(4-Methanesulfonyl-piperazin-1-ylmethyl)-1H-indol-2-yl]-1H-quinolin-2-one], in data set [2], the Solubility was 91 µg/mL and the pH is listed as 3.3.

For `CS(=O)(=O)N1CCN(Cc2ccc3[nH]c(-c4cc5ccccc5[nH]c4=O)cc3c2)CC1` [Besylate salt of 1-11, 3-[5-(4-Methanesulfonyl-piperazin-1-ylmethyl)-1H-indol-2-yl]-1H-quinolin-2-one], in data set [2], the Solubility is 3.8 µg/mL and the pH turned out to be 2.4.

Take `CS(=O)(=O)N1CCN(Cc2ccc3[nH]c(-c4cc5ccccc5[nH]c4=O)cc3c2)CC1` [Citrate salt of 1-11, 3-[5-(4-Methanesulfonyl-piperazin-1-ylmethyl)-1H-indol-2-yl]-1H-quinolin-2-one]: the Solubility in data set [2] is 110 µg/mL.

On to `CS(=O)(=O)N1CCN(Cc2ccc3[nH]c(-c4cc5ccccc5[nH]c4=O)cc3c2)CC1` [Salt 1-11D, 3-[5-(4-Methanesulfonyl-piperazin-1-ylmethyl)-1H-indol-2-yl]-1H-quinolin-2-one], for which the solubility at 7 days in data set [3] (aqueous ETOH, aqueous with cosolvent or surfactant or cyclodextrin) is 4340 µg/mL; in data set [3] (aqueous IPA, aqueous with cosolvent or surfactant or cyclodextrin), 3990 µg/mL; in data set [3] (ethanol, organic solvent or mixture), 130 µg/mL; in data set [3] (isopropanol, organic solvent or mixture) it was 57 µg/mL; in data set [3] (water), 620 µg/mL.

Consider `COCCN(C)CCOc1ccc2[nH]c(-c3cc4ccccc4[nH]c3=O)cc2c1` [Tartrate salt of 4-9, 3-(5-{2-[(2-methoxyethyl)(methyl)amino]ethoxy}-1H-indol-2-yl)-2(1H)-quinolinone], for which the pH in data set [1] stood at 3.23.

Consider `CS(=O)(=O)N1CCN(Cc2ccc3[nH]c(-c4cc5ccccc5[nH]c4=O)cc3c2)CC1` [HBr salt of 1-11, 3-[5-(4-Methanesulfonyl-piperazin-1-ylmethyl)-1H-indol-2-yl]-1H-quinolin-2-one], for which, in data set [2], the Solubility is 200 µg/mL and the pH is on record as 2.9.
